Legend:
[1] = test system: xenograft model of multiple myeloma; details: cited from earlier work
[2] = test system: CIA in C57BL/6 WT and SHIP1 KO mice; experiment: CIA in C57BL/6 WT and SHIP1 KO mice; type: in vivo, mouse
[3] = test system: collagen-induced arthritis (CIA) in DBA/1 mice; experiment: Collagen-induced arthritis (CIA) intervention model, 3AC after second immunization; type: in vivo, mouse
[4] = test system: DBA/1 mice; experiment: 3AC i.p. daily for 7 days in DBA/1 mice: Western blot and flow cytometry; type: in vivo, mouse
Description: Mice. All animals were maintained in pathogen-free conditions and all animal procedures followed protocols approved by the Institutional Animal Care and Use Committee (IACUC) of Rhode Island Hospital. The SHIP-1 knockout (KO) mice (Inpp5d<tm1Dmt>/J, Stock #003534) on a mixed genetic background (129/C57BL/6) were purchased from the Jackson Laboratory, Bar Harbor, ME, and backcrossed with C57BL/6 mice (Stock #000664, the Jackson Laboratory) for 5 generations. Heterozygous (SHIP-1^+/−) mice were intercrossed to obtain homozygous progeny (SHIP-1^−/−). Wild-type (WT) littermates (SHIP-1^+/+) of same age as SHIP1 KO mice were used as controls. DBA/1J mice (Stock #000670) were also purchased from the Jackson Laboratory.
Chemicals and reagents. Specific SHIP-1 inhibitor 3AC was purchased from Echelon Biosciences (Salt Lake, UT) and suspended in 0.3% Klucel (Sigma-Aldrich, St. Louis, MO) solution. The 3AC suspension was stirred by sonication and sterile filtered before injection. The 0.3% Klucel solution was used as a vehicle control.
Immunoblotting. Splenocytes were isolated from C57BL/6 WT and SHIP1 KO mice, and DBA/1 mice with or without 3AC treatment. The cells were then lysed with RIPA buffer containing Halt™ Protease and Phosphatase Inhibitor Cocktail (Thermo Scientific, Rockford, IL). Total lysates (30 μg/sample) were loaded on an SDS-PAGE gel and transferred onto an Immuno-Blot PVDF membrane (Bio-Rad, Hercules, CA). The membranes were first blocked and then probed with antibodies in TBS (20 mM Tris and 150 mM NaCl) containing 0.1% Tween-20 and 5% skim milk. Antibodies against SHIP-1 (P1C1) (sc-8425) and β-Actin (2A3) were purchased from Santa Cruz Biotechnology (Dallas, TX). Blots were developed by using a goat anti-mouse IgG antibody conjugated IRDye 800CW and imaged with an Odyssey imager (LI-COR, Lincoln, NE).
Flow cytometry analysis. Peripheral blood (PB) samples were collected from the retro-orbital sinus of mice on the indicated days. Bone marrow (BM) of femurs and tibiae and spleens were isolated from sacrificed mice. Following treatment with red blood cell lysing buffer (Sigma-Aldrich) and filtration through a nylon mesh, peripheral blood mononuclear cells (PBMCs), splenocytes, and whole BM cells were isolated and suspended in phosphate-buffered saline (PBS) containing 2% FBS. These cells were labeled with fluorophore-conjugated antibodies and subjected to flow cytometry. All antibodies used in flow cytometry were purchased from BioLegend (San Diego, CA): Alexa Fluor 488 anti-mouse CD11b, APC anti-mouse Gr-1, PE anti-mouse CD3e, APC/Cy7 anti-mouse B220, Alexa Flour 488 anti-mouse CD4, and APC anti-mouse CD25. 4′,6-Diamidino-2-Phenylindole (DAPI) was used to exclude DAPI+ dead cells during flow cytometry analysis. Data were acquired using LSR II flow cytometer (BD Biosciences) and analyzed with FlowJo software (FlowJo, Ashland, OR).
Statistical analysis. Data are shown as the mean values±standard error of the mean (SEM). The significance of difference was calculated with unpaired two-tailed Student's t-test or one-way ANOVA when comparing more than 2 groups by using GraphPad Prism (GraphPad Software, Inc., La Jolla, CA). P values less than 0.05 were considered to be statistically significant.

[5] = test system: wild-type (WT) C57BL/6 mice; details: cited from earlier work
[6] = test system: collagen-induced arthritis (CIA) in DBA/1 mice; experiment: Collagen-induced arthritis (CIA) prevention model, 3AC pre-treatment; type: in vivo, mouse
[7] = test system: SHIP-1; details: temporal inhibition of SHIP-1; cited from earlier work
[8] = molecular target: T1, SHIP1 (Homo sapiens, UniProt Q92835); details: read-out: IC50 SHIP-1; cited from earlier work
T1 sequence (Q92835 1-1189): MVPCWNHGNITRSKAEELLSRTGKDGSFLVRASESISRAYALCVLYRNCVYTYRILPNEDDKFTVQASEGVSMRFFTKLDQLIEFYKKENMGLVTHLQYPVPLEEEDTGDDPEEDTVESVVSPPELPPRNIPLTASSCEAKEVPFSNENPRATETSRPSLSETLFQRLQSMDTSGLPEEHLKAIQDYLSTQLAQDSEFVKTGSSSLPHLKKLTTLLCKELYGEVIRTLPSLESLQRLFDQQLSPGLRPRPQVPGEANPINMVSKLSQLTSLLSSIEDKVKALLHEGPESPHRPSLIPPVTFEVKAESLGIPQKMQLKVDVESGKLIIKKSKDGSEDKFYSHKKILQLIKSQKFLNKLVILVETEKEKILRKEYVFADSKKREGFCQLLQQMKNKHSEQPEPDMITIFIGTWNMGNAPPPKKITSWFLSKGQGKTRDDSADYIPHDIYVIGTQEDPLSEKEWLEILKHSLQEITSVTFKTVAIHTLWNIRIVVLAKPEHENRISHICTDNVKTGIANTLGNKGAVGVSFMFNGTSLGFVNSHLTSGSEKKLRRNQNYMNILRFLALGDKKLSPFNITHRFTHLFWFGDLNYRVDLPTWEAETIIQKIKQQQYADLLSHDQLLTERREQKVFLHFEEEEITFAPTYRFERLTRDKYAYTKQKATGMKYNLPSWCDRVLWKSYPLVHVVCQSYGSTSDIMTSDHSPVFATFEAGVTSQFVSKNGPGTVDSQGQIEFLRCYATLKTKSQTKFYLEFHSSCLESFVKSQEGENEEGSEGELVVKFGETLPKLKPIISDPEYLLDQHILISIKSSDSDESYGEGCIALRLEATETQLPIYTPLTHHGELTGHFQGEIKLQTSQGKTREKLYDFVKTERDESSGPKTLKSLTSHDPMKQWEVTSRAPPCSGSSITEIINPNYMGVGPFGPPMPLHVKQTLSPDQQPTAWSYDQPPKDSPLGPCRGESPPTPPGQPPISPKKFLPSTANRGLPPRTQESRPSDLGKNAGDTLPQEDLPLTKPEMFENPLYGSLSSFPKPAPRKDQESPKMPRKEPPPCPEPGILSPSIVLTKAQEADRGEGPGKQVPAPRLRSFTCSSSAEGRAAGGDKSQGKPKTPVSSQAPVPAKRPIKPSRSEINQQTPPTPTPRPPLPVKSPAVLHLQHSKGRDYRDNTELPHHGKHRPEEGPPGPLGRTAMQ

[9] = test system: hematopoietic cancer cells; details: in vitro; cited from earlier work
[10] = test system: mice; details: as seen in SHIP-1 KO mice; cited from earlier work
[11] = 3AC daily for 7 days starting on day 27
[12] = i.p. daily for 7 days, DBA/1 mice
[13] = 3AC daily for 7 days prior to CIA induction, vs vehicle

SMILES: CC(C)CCC[C@@H](C)[C@H]1CC[C@H]2[C@@H]3CC[C@H]4C[C@H](N)CC[C@]4(C)[C@H]3CC[C@]12C [Compound 3AC, 3α-Aminocholestane]
- inflammation of peripheral tissues [1]: without association with severe inflammation of peripheral tissues
- tumor cell growth [1]: reduces tumor cell growth
- incidence and severity of CIA in SHIP1 KO mice ([2]; SHIP1 KO mice treated with 3AC (data not shown)): did not improve
- CIA development in C57BL/6 WT mice ([2]; WT mice with 3AC pre-treatment): did not develop CIA
- CIA incidence [3, 11]: significantly reduced
- CIA severity (clinical score) [3, 11]: significantly reduced
- number of total T cell in peripheral blood ([3]; day 34): Significantly and transiently decreasing
- number of Tregs in peripheral blood ([3]; mouse, in vivo): unchanged
- number of Tregs in the spleen ([3]; onset and endpoint of the experiment, vs control): Comparable number
- number of MDSCs in peripheral blood ([3]; vs vehicle-treated mice, day 34): Significantly but transiently increasing
- CD3+ T cells in PB [4, 12]: significant reduction
- CD11b+Gr-1+ MDSCs in BM [4, 12]: increase
- CD11b+Gr-1+ MDSCs in peripheral blood (PB) [4, 12]: increase
- CD11b+Gr-1+ MDSCs in spleen (SP) [4, 12]: increase
- SHIP-1 protein depletion in splenocytes (Western blot) [4, 12]: comparable to that in SHIP1 KO mice
- Tregs in SP ([4]; vs vehicle control mice): significantly elevated level
- frequency of CD4+CD25+ Tregs in PB ([4]; vs vehicle treated control mice): remained unchanged
- myeloid immunoregulatory cell compartment ([5]; WT C57BL/6 mice): significantly expand
- ability of the immune system to prime allogeneic T cell responses ([5]; mouse models): impairs
- CIA onset [6, 13]: significant delay
- severity of CIA (clinical score) [6, 13]: significant reduction
- misalignment, bone erosion and destruction of joint cartilage (radiographic assessment) ([6]; X-ray at day 63): nearly absent
- time at which swelling and redness of limbs started to appear ([6]; after first immunization, 3AC pre-treated DBA/1 mice): 30 to 40 days
- swollen and reddish front paws (photographic assessment) ([6]; day 42): much less so
- Tregs in the spleen ([6]; following 3AC injection): higher number
- CD3+ T cells in peripheral blood ([6]; till day 21, transient): decreased
- MDSCs in peripheral blood ([6]; till day 21, transient): significantly increased
- bone erosion (Toluidine Blue) ([6]; wrist joint of front paws): reduced bone erosion
- cartilage damage (Safranin O) ([6]; wrist joint of front paws): reduced cartilage damage
- inflammatory cell infiltration in the arthritic joint (H&E) ([6]; wrist joint of front paws): reduced inflammatory cell infiltration
- SHIP-1 protein stability in cells [7]: reduces protein stability and induces protein degradation
- IC50 [8]: ~2500 nM
- apoptosis of hematopoietic cancer cells [9]: increases apoptosis
- pulmonary myeloid infiltration [10]: did not cause

From US12478643B2, “Compositions and methods for the prevention or treatment of rheumatoid arthritis” (Rhode Island Hospital, priority 2021, dated 2025)
